The nature of data set [1]: Intrinsic clearance in dog liver microsomes. In kind it is ADME, Canis lupus familiaris. The settings on record: read-out: CLH.
The nature of data set [2]: Fraction unbound in human plasma. It counts as ADME, cell-free.
Data set [3] addresses Solute carrier organic anion transporter family member 1B1 (Homo sapiens, UniProt Q9Y6L6). Briefly: Drug uptake assessed as human OATP1B1-mediated drug accumulation by cell-based assay relative to wild type protein. In kind it is ADME.
Data set [4] addresses Solute carrier organic anion transporter family member 1B3 (Homo sapiens, UniProt Q9NPD5). In words: Drug uptake assessed as human OATP1B3-mediated drug accumulation by cell-based assay relative to wild type protein. It counts as ADME.
The next data set concerns the target Cytochrome P450 2C9 (Homo sapiens, UniProt P11712). Briefly: Inhibition of CYP2C9 (unknown origin). It counts as ADME.
Another data set addresses Cytochrome P450 2C19 (Homo sapiens, UniProt P33261). Briefly: Inhibition of CYP2C19 (unknown origin). It counts as ADME.
The target of data set [5] is Solute carrier family 22 member 11 (Homo sapiens, UniProt Q9NSA0). Briefly: Inhibition of OAT4 (unknown origin).
Solute carrier family 22 member 11, sequence (Q9NSA0 whole entry): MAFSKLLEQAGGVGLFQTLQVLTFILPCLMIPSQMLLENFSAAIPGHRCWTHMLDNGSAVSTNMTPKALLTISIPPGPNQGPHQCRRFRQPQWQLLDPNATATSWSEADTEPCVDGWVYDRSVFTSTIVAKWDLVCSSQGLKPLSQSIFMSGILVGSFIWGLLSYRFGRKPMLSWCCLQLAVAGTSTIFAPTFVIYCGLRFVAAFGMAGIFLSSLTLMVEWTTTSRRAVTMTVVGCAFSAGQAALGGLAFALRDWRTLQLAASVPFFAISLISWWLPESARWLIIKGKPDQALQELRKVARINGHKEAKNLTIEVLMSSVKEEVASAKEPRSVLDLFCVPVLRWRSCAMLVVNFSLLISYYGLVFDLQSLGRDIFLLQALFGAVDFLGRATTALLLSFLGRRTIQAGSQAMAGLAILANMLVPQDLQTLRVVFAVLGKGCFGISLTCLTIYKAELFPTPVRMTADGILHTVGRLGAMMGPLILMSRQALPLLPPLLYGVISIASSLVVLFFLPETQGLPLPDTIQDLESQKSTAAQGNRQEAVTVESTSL
The nature of data set [6]: Cytotoxicity against THLE cells. The settings on record: human. It counts as toxicity, cell-based.
The nature of data set [7]: Mutagenicity in […] by Ames test in absence of […] fraction. In kind it is toxicity.
The nature of data set [8]: Intrinsic clearance in dog hepatocytes assessed per 10^6 cells. The conditions noted are these: read-out: CLH. It counts as ADME, cell-based, Canis lupus familiaris, Hepatocyte.
The nature of data set [9]: Unbound clearance in rat at 0.76 mg/kg, iv and 2.3 mg/kg, po. In kind it is ADME, organism-based. The conditions noted are these: in vivo.
Data set [10] can be described thus: Volume of distribution at steady state in rat at 0.76 mg/kg, iv and 2.3 mg/kg, po. In kind it is ADME, organism-based. The conditions noted are these: in vivo, read-out: Vdss.
Data set [11] can be described thus: Oral bioavailability in rat at 2.3 mg/kg. In kind it is ADME, organism-based. The conditions noted are these: in vivo.
The nature of data set [12]: Half life in rat at 0.5 mg/kg, iv and 1 mg/kg, po. In kind it is ADME, organism-based. The conditions noted are these: in vivo.
A short description of data set [13]: Oral bioavailability in rat at 1 mg/kg. In kind it is ADME, organism-based. The conditions noted are these: in vivo.
The nature of data set [14]: Drug metabolism in rat assessed as loss of chlorobenzonitrile moiety in presence of glutathione. In kind it is ADME.
Data set [15] concerns Rattus norvegicus. In words: Toxicity in rat assessed as mortality at 300 mg/kg/day, po measured over 14 days. It counts as organism-based. The conditions noted are these: in vivo, 336 h.
Data set [16] deals with Rattus norvegicus. Briefly: Toxicity in rat assessed as increase in mitosis in collecting ducts at 300 mg/kg/day, po measured over 14 days by microscopic analysis. It counts as organism-based. The settings on record: in vivo, 336 h.
Data set [17] has as its system Rattus norvegicus. In words: Toxicity in rat assessed as hepatocellular hypertrophy with focal necrosis at 300 mg/kg/day, po measured over 14 days by microscopic analysis. It counts as organism-based. The settings on record: in vivo, 336 h.
Data set [18] can be described thus: Toxicity in dog assessed as histologic change in testes at 300 mg/kg/day, po measured over 14 days. In kind it is organism-based, Canis lupus familiaris. The conditions noted are these: in vivo, 336 h.
The next data set relates to Canis familiaris. Briefly: Hepatotoxicity in male dog assessed as pathological changes at >= 30 mg/kg/day, po measured over 14 days. It counts as toxicity, organism-based, Canis lupus familiaris. The settings on record: in vivo, 336 h.
The nature of data set [19]: Unbound Cmax in dog at 30 mg/kg, po administered as single dose measured on day 14. In kind it is ADME, organism-based, Canis lupus familiaris. The conditions noted are these: in vivo.
The test system of data set [20] is Rattus norvegicus. In words: Cardiovascular toxicity in rat assessed as decrease in body temperature at 10 mg/kg, po measured over 14 days. In kind it is organism-based. The settings on record: in vivo, 336 h.

pIC50: −log10 of the molar value.

Solute carrier organic anion transporter family member 1B1, sequence (Q9Y6L6 whole entry): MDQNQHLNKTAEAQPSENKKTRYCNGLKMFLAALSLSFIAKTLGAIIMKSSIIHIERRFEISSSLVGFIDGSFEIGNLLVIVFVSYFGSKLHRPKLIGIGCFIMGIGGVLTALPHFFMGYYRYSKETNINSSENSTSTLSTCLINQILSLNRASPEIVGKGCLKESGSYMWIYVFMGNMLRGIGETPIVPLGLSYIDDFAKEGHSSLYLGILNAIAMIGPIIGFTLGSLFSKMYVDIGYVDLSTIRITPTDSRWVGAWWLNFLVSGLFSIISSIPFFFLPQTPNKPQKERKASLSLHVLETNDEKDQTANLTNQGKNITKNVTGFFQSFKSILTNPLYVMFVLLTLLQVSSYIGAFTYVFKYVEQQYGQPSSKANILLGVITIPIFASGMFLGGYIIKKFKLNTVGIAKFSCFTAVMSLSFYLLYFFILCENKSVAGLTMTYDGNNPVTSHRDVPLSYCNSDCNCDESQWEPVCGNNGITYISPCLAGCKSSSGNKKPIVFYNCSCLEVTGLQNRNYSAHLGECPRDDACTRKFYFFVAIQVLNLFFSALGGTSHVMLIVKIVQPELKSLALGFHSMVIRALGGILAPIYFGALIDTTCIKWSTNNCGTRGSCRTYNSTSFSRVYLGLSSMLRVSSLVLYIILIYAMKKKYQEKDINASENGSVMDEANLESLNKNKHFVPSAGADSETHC
Cytochrome P450 2C19, sequence (P33261 whole entry): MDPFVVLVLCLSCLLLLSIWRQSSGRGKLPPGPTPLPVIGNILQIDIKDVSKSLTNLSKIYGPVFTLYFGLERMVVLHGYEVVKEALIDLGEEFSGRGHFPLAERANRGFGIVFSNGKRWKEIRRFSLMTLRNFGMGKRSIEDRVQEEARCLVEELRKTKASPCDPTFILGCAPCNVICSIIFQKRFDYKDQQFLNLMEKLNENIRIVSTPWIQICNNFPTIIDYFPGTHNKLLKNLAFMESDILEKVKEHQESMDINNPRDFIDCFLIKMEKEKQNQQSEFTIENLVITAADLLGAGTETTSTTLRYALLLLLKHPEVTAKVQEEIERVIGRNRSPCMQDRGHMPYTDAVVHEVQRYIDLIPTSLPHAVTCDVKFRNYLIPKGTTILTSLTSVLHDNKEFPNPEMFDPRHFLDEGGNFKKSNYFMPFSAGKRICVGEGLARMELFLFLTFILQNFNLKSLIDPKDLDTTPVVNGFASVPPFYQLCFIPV
Cytochrome P450 2C9, sequence (P11712 whole entry): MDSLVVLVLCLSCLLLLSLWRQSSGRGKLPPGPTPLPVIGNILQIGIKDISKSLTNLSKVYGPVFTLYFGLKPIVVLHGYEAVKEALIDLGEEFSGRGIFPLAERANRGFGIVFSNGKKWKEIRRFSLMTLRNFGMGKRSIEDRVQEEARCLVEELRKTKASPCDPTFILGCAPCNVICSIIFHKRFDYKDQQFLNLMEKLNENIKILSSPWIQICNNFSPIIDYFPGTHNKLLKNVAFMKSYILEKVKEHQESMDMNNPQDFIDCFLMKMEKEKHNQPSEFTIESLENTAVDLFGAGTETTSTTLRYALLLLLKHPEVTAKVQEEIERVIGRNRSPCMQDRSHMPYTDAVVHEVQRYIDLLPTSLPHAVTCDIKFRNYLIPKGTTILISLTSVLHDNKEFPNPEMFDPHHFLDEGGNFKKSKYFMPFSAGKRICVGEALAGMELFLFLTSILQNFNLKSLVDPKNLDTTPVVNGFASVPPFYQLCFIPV
Solute carrier organic anion transporter family member 1B3, sequence (Q9NPD5 whole entry): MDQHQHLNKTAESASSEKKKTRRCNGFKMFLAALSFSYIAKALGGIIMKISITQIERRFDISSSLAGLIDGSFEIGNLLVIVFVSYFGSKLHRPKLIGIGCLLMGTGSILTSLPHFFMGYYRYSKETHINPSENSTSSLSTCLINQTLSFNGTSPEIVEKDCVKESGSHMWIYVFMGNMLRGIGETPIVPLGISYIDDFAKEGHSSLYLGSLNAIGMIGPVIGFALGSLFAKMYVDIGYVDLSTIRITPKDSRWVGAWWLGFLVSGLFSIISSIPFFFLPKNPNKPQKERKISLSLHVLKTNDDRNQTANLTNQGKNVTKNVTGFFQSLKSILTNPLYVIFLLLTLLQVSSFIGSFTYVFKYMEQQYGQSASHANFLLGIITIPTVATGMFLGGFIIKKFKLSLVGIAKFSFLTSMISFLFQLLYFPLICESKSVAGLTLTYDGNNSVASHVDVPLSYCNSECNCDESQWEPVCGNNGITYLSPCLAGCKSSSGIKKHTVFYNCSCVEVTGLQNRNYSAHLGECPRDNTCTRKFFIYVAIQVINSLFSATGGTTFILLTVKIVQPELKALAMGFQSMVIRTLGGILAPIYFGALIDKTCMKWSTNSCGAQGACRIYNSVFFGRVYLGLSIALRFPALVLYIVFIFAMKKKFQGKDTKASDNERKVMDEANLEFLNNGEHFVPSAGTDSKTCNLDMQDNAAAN

Usually fraction unbound stands for free concentration divided by total concentration. Higher therefore signals much free substance. By pIC50 is commonly meant −log10 of the IC50, conventionally taken in molar units. As usually defined, the bioavailability is dose-corrected exposure relative to a reference, in per cent. A high value points to much systemic uptake. What is called half-life is the time in which the quantity being followed falls by half. In the case of `N#Cc1ccc(Oc2ccc(S(=O)(=O)Nc3ccc(F)cn3)cc2C#N)cc1Cl`, the microsomal CLint in data set [1] is < 18 µL/min/mg. Besides, the free fraction (fraction unbound) in data set [2] came out at 0.0012. Also, the “fold change (FC)” value came to 1.003 in data set [3] and 1.067 in data set [4]. For the same compound, the pIC50 against Cytochrome P450 2C9 was 5.38; against Cytochrome P450 2C19, 4.76; in data set [5], 4.85. Moreover, the Activity was 103 µM in data set [6]; “Non-Toxic” in data set [7]; “Toxic” with Rattus norvegicus [15]; “Toxic” in the data set on Rattus norvegicus [16]; “Toxic” in the data set on Rattus norvegicus [17]; “Toxic” in [18]. Also, the Activity entry in the data set with Canis familiaris is “Non-Toxic”; in the data set with Rattus norvegicus [20] it was “Toxic”. The hepatocyte CLint in [8] was < 6 µL/min/1e6 cells. Moreover, the CL free in data set [9] is 229 mL/min/kg. Moreover, in data set [10], the Vd came out at 0.25 L/kg. The bioavailability in data set [11] and in data set [13] was 100% in each case. Besides, the half-life in data set [12] is 6.7 h. The Drug metabolism result in data set [14] is “Metabolite_Notdetected”. In addition, the fCmax in data set [19] came to 7.419 µM.

The values above are taken from ChEMBL document CHEMBL3853264 (Medchemcomm, 2016).
